The results in this text go back to patent US11319298B2 (Merck Sharp & Dohme Corp., priority 2016, dated 2022).

As a reminder, the EC50 is the concentration at which the effect is half-maximal. A low value points to higher potency in that assay.

The structures appear in SMILES notation.

For the assay, the target named is T1, human M4 muscarinic acetylcholine receptor (Homo sapiens, UniProt P08173).
T1 construct: expressed in transfected cells; host or cells: CHO-K1
T1 sequence (P08173 1-479): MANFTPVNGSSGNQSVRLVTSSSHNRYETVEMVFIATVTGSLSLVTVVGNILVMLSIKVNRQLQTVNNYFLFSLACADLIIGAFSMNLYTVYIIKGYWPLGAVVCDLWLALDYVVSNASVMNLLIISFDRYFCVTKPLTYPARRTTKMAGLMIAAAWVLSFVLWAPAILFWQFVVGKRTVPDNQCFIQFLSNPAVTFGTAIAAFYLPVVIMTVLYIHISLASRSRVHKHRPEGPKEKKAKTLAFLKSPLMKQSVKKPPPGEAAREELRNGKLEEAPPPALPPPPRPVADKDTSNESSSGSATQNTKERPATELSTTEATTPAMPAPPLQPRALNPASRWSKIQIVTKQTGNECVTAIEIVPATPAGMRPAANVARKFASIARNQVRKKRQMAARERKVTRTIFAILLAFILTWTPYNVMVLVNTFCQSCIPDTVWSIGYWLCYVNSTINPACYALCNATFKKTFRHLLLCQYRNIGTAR
Briefly: human FLIPR-based M4 PAM assay, CHO-K1 cells stably transfected with human M4 receptor and chimeric G-protein Gαqi5. The format is cell-based. The conditions noted are these: inflection point (IP) of dose response curve; acetylcholine added at 20% of maximum response; CHO-K1 human M4/Gαqi5, FLIPR Tetra. The procedure: In a typical experiment the M4 muscarinic acetylcholine receptor modulating activity of the compounds of the present invention was determined in accordance with the following experimental method. CHO-K1 cells stably transfected with human M4 receptor and chimeric G-protein Gαqi5 (Coward P, et al., Analytical Biochemistry, 270:242-248 (1999)) are thawed from liquid N2 storage, resuspended in growth medium, plated in black, clear bottom 384 well plates, and incubated 16-20 hours at 37° C., 5% CO2. On the day of assay, growth medium is removed, the cells are washed 2 times with wash buffer, and cells are incubated in dye loading buffer at 37° C., 5% CO2 for ˜1 hour. Following dye loading the cell plates are placed in a FLIPR Tetra instrument and while monitoring dye fluorescence (excitation […]), 10 uL of test substance at increasing concentrations is added, and fluorescence values are recorded for 4 min. Next, 10 uL of acetylcholine is added (final concentration calculated so as to achieve 20% of the maximum acetycholine response), and the fluorescence reading is continued for 3.5 min. In some cases, a third addition of acetylcholine (final concentration calculated to achieve 70% of the maximal acetylcholine response) is performed. The resulting dose response curves are fit to a 4 parameter logistic equation and the final result is determined as the inflection point (IP) of the curve
CHO-K1 cells stably transfected with human M4 receptor and chimeric G-protein Gαqi5 are thawed from liquid N2 storage, resuspended in growth medium, plated in black, clear bottom 384 well plates, and incubated 16-20 hours at 37° C., 5% CO2.
On the day of assay, growth medium is removed, the cells are washed 2 times with wash buffer, and cells are incubated in dye loading buffer at 37° C., 5% CO2 for ˜1 h. Following dye loading the cell plates are placed in a FLIPR Tetra instrument and while monitoring dye fluorescence ([…]), 10 uL of test substance at increasing concentrations is added, and fluorescence values are recorded for 4 min. Next, 10 uL of acetylcholine is added (final concentration calculated so as to achieve 20% of the maximum acetycholine response), and the fluorescence reading is continued for 3.5 min. In some cases, a third addition of acetylcholine (final concentration calculated to achieve 70% of the maximal acetylcholine response) is performed.
Regarding `COCc1nc(Cl)c(C)c(N2CCC(Oc3ccc(OC)cc3)CC2)n1` [Example 61, 4-chloro-2-(methoxymethyl)-6-(4-(4-methoxyphenoxy)piperidin-1-yl)-5-methylpyrimidine], the EC50 came out at 84 nM. This lies in the double-digit nanomolar range.
For `COc1ccc(OC2CCN(c3nc(C)nc(Cl)c3C)CC2)cc1` [Example 62, 4-chloro-6-(4-(4-methoxyphenoxy)piperidin-1-yl)-2,5-dimethylpyrimidine] the value was 94 nM.
`Cc1c(Cl)nc(CO)nc1N1CCC(Oc2ccc3nn(C)cc3c2)CC1` [Example 63] registered an EC50 of 99 nM.
For `Cc1ncc(C)c(N2CCC(Oc3ccc(OCCO)nc3)CC2)n1` [Example 64, 2-((5-((1-(2,5-dimethylpyrimidin-4-yl)piperidin-4-yl)oxy)pyridin-2-yl)oxy)ethan-1-ol] the value was 99 nM; for `COc1ncc(OC2CCN(c3nc(CO)nc(Cl)c3C)CC2)cc1Cl` [Example 65, (4-chloro-6-(4-((5-chloro-6-methoxypyridin-3-yl)oxy)piperidin-1-yl)-5-methylpyrimidin-2-yl)methanol], 100 nM; for `Cc1c(Cl)ncnc1N1CCC(Oc2ccc3nn(C)cc3c2)CC1` [Example 66, 5-((1-(6-chloro-5-methylpyrimidin-4-yl)piperidin-4-yl)oxy)-2-methyl-2H-indazole], 106 nM.
The value for `Cc1nc(Cl)c(C)c(N2CCC(Oc3ccc4nn(C)cc4c3)CC2)n1` [Example 67, 5-((1-(6-chloro-2,5-dimethypyrimidin-4-yl)piperidin-4-yl)oxy)-2-methyl-2H-indazole] was 108 nM; that for `COc1ccc(OC2CCN(c3nc(CO)nc(Cl)c3C)CC2)cn1` [Example 68, (4-chloro-6-(4-((6-methoxypyridin-3-yl)oxy)piperidin-1-yl)-5-methylpyrimidin-2-yl)methanol] was 126 nM; that for `COc1ccc(OC2CCN(c3nc(C)ncc3C)CC2)cc1` [Example 69, 4-(4-(4-methoxyphenoxy)piperidin-1-yl)-2,5-dimethylpyrimidine] was 126 nM.
As for `COC(=O)c1cc(C)c(N2CCC(Oc3ccc(OC)nc3)CC2)nn1` [Example 70, methyl 6-(4-((6-methoxypyridin-3-yl)oxy)piperidin-1-yl)-5-methylpyridazine-3-carboxylate], the EC50 worked out at 129 nM.
For `Cc1ncc(C)c(N2CC[C@@H](Oc3cccc(C#N)c3)[C@H](F)C2)n1` [Example 71, 3-(((3R,4R)-1-(2,5-dimethylpyrimidin-4-yl)-3-fluoropiperidin-4-yl)oxy)benzonitrile] the value was 135 nM; for `Cc1ncc(C)c(N2CCC(Oc3ccc(OCC(C)(C)N)nc3)CC2)n1` [Example 72, 1-((5-((1-(2,5-dimethylpyrimidin-4-yl)piperidin-4-yl)oxy)pyridin-2-yl)oxy)-2-methylpropan-2-amine], 140 nM.
As for `COc1ccc(OC2CCN(c3nc(S(C)(=O)=O)nc(Cl)c3C)CC2)cc1` [Example 73, 4-chloro-6-(4-(4-methoxyphenoxy)piperidin-1-yl)-5-methyl-2-(methylsulfonyl)pyrimidine], a half-maximal response (EC50) required 141 nM.
`COc1ncc(OC2CCN(c3nc(C)ncc3C)CC2)cc1F` [Example 74, 4-(4-((5-fluoro-6-methoxypyridin-3-yl)oxy)piperidin-1-yl)-2,5-dimethylpyrimidine] registered an EC50 of 155 nM. The EC50 values of the last two molecules are within 1.5-fold of each other.
`Cc1ncc(C)c(N2CC[C@@H](Oc3cccc(C#N)c3)[C@@H](F)C2)n1` [Example 75, 3-(((3S,4R)-1-(2,5-dimethylpyrimidin-4-yl)-3-fluoropiperidin-4-yl)oxy)benzonitrile] came in with an EC50 of 156 nM.
Consider `Cc1ncc(C)c(N2CCC(Oc3cccc(C#N)c3)CC2)n1` [Example 76, 3-((1-(2,5-dimethylpyrimidin-4-yl)piperidin-4-yl)oxy)benzonitrile], for which the midpoint of the response, the EC50, lay at 172 nM.
Take `COc1ccc(OC2CCN(c3nc(Cl)nc(Cl)c3C)CC2)cc1` [Example 77, 2,4-dichloro-6-(4-(4-methoxyphenoxy)piperidin-1-yl)-5-methylpyrimidine]: the EC50 stood at 177 nM.
The value for `COCc1nc(Cl)c(C)c(N2CCC(Oc3ccc(OC)nc3)CC2)n1` [Example 78, 4-chloro-2-(methoxymethyl)-6-(4-((6-methoxypyridin-3-yl)oxy)piperidin-1-yl)-5-methylpyrimidine] was 187 nM.
Consider `COc1ccc(OC2CCN(c3nc(C)ncc3C)CC2)cn1` [Example 79, 4-(4-((6-methoxypyridin-3-yl)oxy)piperidin-1-yl)-2,5-dimethylpyrimidine], for which the EC50 came out at 235 nM.
As for `Cc1ncc(C)c(N2CCC(Oc3ccc4cn[nH]c4c3)CC2)n1` [Example 80, 6-((1-(2,5-dimethylpyrimidin-4-yl)piperidin-4-yl)oxy)-1H-indazole], the EC50 is 257 nM.
In turn, `Cc1ncc(C)c(N2CC[C@H](Oc3cccc(C#N)c3)[C@H](F)C2)n1` [Example 81, 3-(((3R,4S)-1-(2,5-dimethylpyrimidin-4-yl)-3-fluoropiperidin-4-yl)oxy)benzonitrile] yielded a concentration giving a half-maximal response (EC50) of 293 nM.
The value for `COc1ccc(OC2CCN(c3nc(SC)nc(Cl)c3C)CC2)cn1` [Example 82, 4-chloro-6-(4-((6-methoxypyridin-3-yl)oxy)piperidin-1-yl)-5-methyl-2-(methylthio)pyrimidine] was 385 nM; that for `Cc1ncc(C)c(N2CC[C@H](Oc3cccc(C#N)c3)[C@@H](F)C2)n1` [Example 83, 3-(((3S,4S)-1-(2,5-dimethylpyrimidin-4-yl)-3-fluoropiperidin-4-yl)oxy)benzonitrile] was 475 nM.
On to `COc1ccc(O[C@@H]2CCN(c3nc(C)ncc3C)C[C@@H]2F)cn1` [Example 84, 4-((3S,4R)-3-fluoro-4-((6-methoxypyridin-3-yl)oxy)piperidin-1-yl)-2,5-dimethylpyrimidine], for which a half-maximal effect (EC50) was put at 574 nM. This EC50 and that of the molecule before are within 1.5-fold of each other.
The value for `COc1ccc(OC2CCN(c3nc(SC)ncc3C#N)CC2)cn1` [Example 85, 4-(4-((6-methoxypyridin-3-yl)oxy)piperidin-1-yl)-2-(methylthio)pyrimidine-5-carbonitrile] was 1150 nM.
For `COc1ccc(OC2CCN(c3nnc(C)c(C)c3C#N)CC2)cn1` [Example 86, 3-(4-((6-methoxypyridin-3-yl)oxy)piperidin-1-yl)-5,6-dimethylpyridazine-4-carbonitrile] the value was 1170 nM.
Regarding `COc1ccc(OC2CCN(c3nc(C)nc(N)c3C)CC2)cn1` [Example 87, 6-(4-((6-methoxypyridin-3-yl)oxy)piperidin-1-yl)-2,5-dimethylpyrimidin-4-amine], the EC50 was 1500 nM.
Consider `COc1ncc(C#N)c(N2CCC(Oc3cccc(C#N)c3)CC2)n1` [Example 88, 4-(4-(3-cyanophenoxy)piperidin-1-yl)-2-methoxypyrimidine-5-carbonitrile], for which the EC50 was 1530 nM.
For `COc1ccc(OC2CCN(c3ncnc(N)c3C)CC2)cn1` [Example 89, 6-(4-((6-methoxypyridin-3-yl)oxy)piperidin-1-yl)-5-methylpyrimidin-4-amine] the value was 1610 nM.
The value for `Cc1c(Cl)nc(CO)nc1N1CC[C@@H](Oc2ccc3[nH]ncc3c2)[C@@H](F)C1` [Example 90, (4-((3S,4R)-4-((1H-indazol-5-yl)oxy)-3-fluoropiperidin-1-yl)-6-chloro-5-methylpyrimidin-2-yl)methanol] was 20 nM.
The value for `Cc1c(Cl)nc(CO)nc1N1CCC(Oc2ccc3c(c2)C(=O)CO3)CC1` [Example 91, 5-((1-(6-chloro-2-(hydroxymethyl)-5-methylpyrimidin-4-yl)piperidin-4-yl)oxy)benzofuran-3(2H)-one] was 27 nM; that for `Cc1c(Cl)nc(CO)nc1N1CCC(Oc2ccc3c(c2)OCCO3)CC1` [Example 92, (4-chloro-6-(4-((2,3-dihydrobenzo[b][1,4]dioxin-6-yl)oxy)piperidin-1-yl)-5-methylpyrimidin-2-yl)methanol] was 29 nM.
